Reference: patent US5318980A, “Sulphonylbenzyl-substituted imidazoles” (Bayer Aktiengesellschaft, priority 1992, dated 1994)

test system: isolated aortic rings of rabbits, contraction induced by AII; experiment: Inhibition of angiotensin II-induced contraction on isolated aortic rings of rabbits in vitro; assay type: cell-based, rabbit; details: Oryctolagus cuniculus, 3rd=submaximum agonist concentration, read-out: IC50 against contractions induced by AII
Procedure: Rabbits of both sexes are stunned by a blow to the neck and exsanguinated or, where appropriate, anaesthetised with Nembutal (about 60-80 mg/kg i.v.) and sacrificed by opening the thorax. The thoracic aorta is removed, freed from attached connective tissue and divided into ring segments 1.5 mm wide, and the segments are introduced individually, under an initial load of about 3.5 g, into 10 ml organ baths containing carbogen-gassed KrebsHenseleit nutrient solution thermostatically controlled at 37° C. and having the following composition: 119 mmol/l of NaCl; 2.5 mmol/l of CaCl2 ×2 H2 O; 1.2 mmol/l to KH2 PO4; 10 mmol/l of glucose; 4.8 mmol/l of KCl; 1.4 mmol/l of MgSO4 ×7 H2 O and 25 mmol/l of NaHCO3.
The contractions are recorded isometrically by Statham UC2 cells via a bridge amplifier (ifd Mulheim or DSM Aalen), and are digitalised and evaluated by means of an A/D converter (system 570, Keithley Munich). The agonist dose/effect curves (DEC) are plotted hourly. For each DEC, 3 or 4 individual concentrations are applied to the baths at intervals of 4 minutes. The DEC and subsequent wash-out cycles (16 times for about 5 sec/min each with the above nutrient solution) are followed by a 28-minute resting or incubation phase, within which the contractions as a rule reach the starting value again.
The level of the 3rd DEC in the normal case is used as a reference parameter for evaluating the test substance which is to be investigated in subsequent passes and, for the subsequent DECs, is applied to the baths at the start of the incubation time in a dosage which increases each time. Each aortic ring is stimulated with always the same agonist over the entire day.
Agonists and their standard concentrations (application
The effect in each case at the 3rd=submaximum agonist concentration is taken as a basis for calculation of the IC50 (concentration at which the substance to be investigated causes 50% inhibition).

Compound | IC50
CCCCc1nc(Cl)c(C(=O)O)n1Cc1ccc(S(=O)(=O)N2CCC[C@H]2C(=O)O)cc1 [Example 15] | 0.202 µM
CCCCc1nc(Cl)c(C(=O)O)n1Cc1ccc(S(=O)(=O)N2CCCCC2C(=O)O)cc1Cl (stereo not drawn) [Example 16] | 0.309 µM
CCCCc1nc(Cl)c(CO)n1Cc1ccc(S(=O)(=O)N2CCC[C@H]2C(=O)O)cc1Cl [Example 19] | 0.044 µM
CCCCc1nc(Cl)c(CO)n1Cc1ccc(S(=O)(=O)N2CCC[C@H]2C(=O)O)cc1 [Example 21] | 0.25 µM
CCCCc1nc(Cl)c(C(=O)O)n1Cc1ccc(S(=O)(=O)N2CCCCC2C(=O)O)cc1 (stereo not drawn) [Example 25] | 0.005 µM

test system: smooth muscle cells; experiment: Inhibition of the proliferation of smooth muscle cells (3H-thymidine incorporation); assay type: cell-based, rats or pigs; details: at 10^-6 M (so in the source); growth stimulated with AII, serum or other factors
Procedure: Smooth muscle cells which are obtained from the aortas of rats or pigs by the media explantate technique are used to determine the antiproliferative action of the compounds [R. Ross, J. Cell. Biol. 50, 172, 1971]. The cells are sown in suitable culture dishes, as a rule 24-hole plates, and cultured for 2-3 days in medium 199 containing 7.5% of FCS and 7.5% of NCS, 2 mM of L-glutamine and 15 mM of HEPES, pH 7.4, in 5% CO2 at 37° C. Thereafter, the cells are synchronised by serum withdrawal for 2-3 days and then stimulated to growth with AII, serum or other factors. Test compounds are added at the same time. After 16-20 hours, 1 μCi of ^3 H-thymidine is added, and after a further 4 hours, the incorporation of this substance into the TCA-precipitatable DNA of the cells is determined.

Compound | % inhibition at 10^6 M
CCCCc1nc(Cl)c(CO)n1Cc1ccc(S(=O)(=O)N2CCCCC2)cc1 [Example 11] | 20%
CCCCc1nc(Cl)c(CO)n1Cc1ccc(S(=O)(=O)N2CCC[C@H]2C(=O)OC(C)(C)C)cc1Cl [Example 12] | 70%

target: T1, Angiotensin II receptor (Bos taurus, UniProt P25104); experiment: Interaction with the angiotensin II receptor on membrane fractions of the adrenal cortex (cattle), 3H-angiotensin II bonding; assay type: binding; details: bovine adrenal cortex membranes; 3H-angiotensin II (3-5 nM); 60 minutes at room temperature
T1 construct: carried out on partly purified membrane fractions of bovine AC with radioactive angiotensin II; from tissue; host or cells: bovine adrenal cortex, freed from medulla, partly purified membrane fractions
T1 sequence (P25104 1-359): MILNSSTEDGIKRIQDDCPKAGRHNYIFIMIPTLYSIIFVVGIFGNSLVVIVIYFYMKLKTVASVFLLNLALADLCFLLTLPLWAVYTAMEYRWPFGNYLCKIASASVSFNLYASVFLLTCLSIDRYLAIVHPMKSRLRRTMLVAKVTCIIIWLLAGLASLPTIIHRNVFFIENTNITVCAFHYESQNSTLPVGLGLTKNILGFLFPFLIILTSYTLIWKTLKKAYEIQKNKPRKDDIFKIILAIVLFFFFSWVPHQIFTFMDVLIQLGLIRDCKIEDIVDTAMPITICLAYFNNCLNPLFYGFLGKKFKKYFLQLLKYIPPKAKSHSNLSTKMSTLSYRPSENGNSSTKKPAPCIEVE
Procedure: Adrenal cortices from cattle (AC), which are freshly removed and carefully freed from medulla from the capsule, are comminuted to a coarse membrane homogenate in sucrose solution (0.32M) with the aid of an Ultra-Turrax (Janke & Kunkel, Staufen i.B.), and the homogenate is partly purified to membrane fractions in two centrifugation steps.
The investigations on receptor bonding are carried out on partly purified membrane fractions of bovine AC with radioactive angiotensin II in an assay volume of 0.25 ml, which specifically contains the partly purified membranes (50-80 μg), ^3 H-angiotensin II (3-5 nM), test buffer solution (50 mM Tris, pH 7.2), 5 mM MgCl2 and the substances to be investigated. After an incubation time of 60 minutes at room temperature, the non-bonded radioactivity of the samples is separated off by means of moistened glass fibre filters (Whatman GF/C), and, after the protein has been washed with ice-cold buffer solution (50 mM Tris/HCl, pH 7.4, 5% PEG 6000), the radioactivity bonded is measured […] in a scintillation cocktail. The raw data were analysed with computer programs to give Ki and IC50 values (Ki : IC50 values corrected for the radioactivity used; IC50 values: concentration at which the substance to be investigated causes 50% inhibition of specific bonding of the radioligand).

Compound | Ki
CCCCc1nc(Cl)c(C(=O)O)n1Cc1ccc(S(=O)(=O)N2CCC[C@H]2C(=O)O)cc1 [Example 15] | 0.4 µM
CCCCc1nc(Cl)c(C(=O)O)n1Cc1ccc(S(=O)(=O)N2CCCCC2C(=O)OC(C)(C)C)cc1Cl (stereo not drawn) [Example 18] | 0.2 µM
